Tests used:
[1] = test system: cellulase genes (cbh-1, gh5-1, gh6-2); assay: Quantitative RT-PCR, cellulase gene expression stated for the genes together; type: cell-based, Neurospora crassa; details: for induction of cellulase gene expression: 4 hour induction with 1 mM; for induction of lignocellulolytic genes: wild-type N. crassa (WT) grown on the substance as sole carbon source
Experimental: Conidia from strains were inoculated at an OD595 equal to 0.05 in 50 ml Vogel's salts (45) with 2% w/v sucrose in a 250 ml Erlenmeyer flask and grown under constant light at 200 rpm for 16 hours. Biomass was then spun at 4200 rpm for 10 minutes and washed in Vogel's salts twice to remove any excess sucrose. […] Cultures were induced for 4 hrs under constant light at 200 rpm. The culture biomass was then harvested by filtration over a Whatman glass microfiber filter (GF/F) on a Buchner funnel and washed with 50 ml Vogel's salts. The biomass was flash frozen in liquid nitrogen and stored at −80° C. Three independent biological duplicates (flasks) were evaluated for each time point.
Total RNA from frozen samples was isolated using Zirconia/Silica beads (0.5 mm diameter; Biospec) and a Mini-Beadbeater-96 (Biospec) with 1 mL TRIzol reagent (Invitrogen) according to the manufacturer's instructions. The total RNA was further purified by digestion with TURBO DNA-free (Ambion) and an RNeasy kit (Qiagen). RNA concentration and integrity was checked by Nanodrop and agarose gel electrophoresis.
Quantitative RT-PCR was performed using the EXPRESS One-Step SYBR GreenER Kit (Invitrogen) and the StepOnePlus Real-Time PCR System (Applied Biosystems). Reactions were performed in triplicate with a total reaction volume of 10 μl including 300 nM each forward and reverse primers and 75 ng template RNA. Data Analysis was performed by the StepOne Software (Applied Biosystems) using the Relative Quantitation/Comparative CT (ΔΔCT) setting. Data was normalized to the endogenous control actin with expression on sucrose as the reference sample.

[2] = test system: Neurospora crassa; assay: Secreted protein concentration in shake flask culture supernatant; type: cell-based; details: for secreted protein concentration: 48 hours
Experimental: (§1) Strains were inoculated at an OD595 equal to 0.05 in 100 ml Vogel's salts with 1% (wt/vol) sucrose in a 250 ml Erlenmeyer flask and grown under constant light at 200 rpm for 24 hours. Cultures were then induced with 2% sucrose, 2% cellobiose, 1% sucrose/1% cellobiose, or 1% sucrose/1% Avicel®. Cultures continued to grow under constant light at 200 rpm for 5 days with supernatant collected at 1, 2, 3, 4 and 5 day. The collected supernatant was filtered through a 0.2 μm PES filter to remove biomass before being stored at −20° C. until all samples were collected. To visualize the secreted proteins, 15 μl of unconcentrated supernatant was run on a Criterion 10% Tris-HCL polyacrylamide gel and stained with Thermo Scientific GelCode Blue Stain Reagent.

[3] = test system: Exoglucanase (Cellobiohydrolase I); assay: MuLac (4-Methylumbelliferyl β-D-cellobioside) exoglucanase activity of culture supernatant; type: cell-based, Neurospora crassa
Experimental: as §1
Exoglucanase (Cellobiohydrolase I) activity was measured using a 4-Methylumbelliferyl β-D-cellobioside (MuLac) assay. This assay mainly measures the activity of CBH-1 and activity is expressed as the change in fluorescence over time resulting in the slope of a best-fit line as an indication of enzyme activity. Prior to performing this assay, any excess sugars in the culture supernatant were removed by passing the supernatant over a 5,000 Dalton concentrator (sartorius stedim Vivaspin 500). Retained proteins were washed twice with 50 mM sodium acetate pH 5 and diluted to 2 μg/μl to assure that the assay remained in the linear range. […] The assay was performed in a Beckman Coulter Paradigm plate reader set at 40° C. with excitation/emission wavelengths of 360/465 nm with readings every 30 seconds for 10 minutes. The slope of the best-fit line represents the MuLac activity for an individual culture supernatant. The MuLac activity is normalized to the initial dilution required to obtain a 2 μg/μl concentration in order to represent the undiluted activity. The activity of recombinant cellobiohydrolase-1 was used as a standard and data is presented as a percentage of the wild type activity on Avicel® after 4 days.

[4] = test system: Neurospora crassa; assay: Avicel hydrolysis assay with shake flask culture supernatants; type: cell-based
Experimental: Cultures were grown in 1% sucrose for 24 hours followed by the addition of 2% sucrose or 0.2% cellobiose. Supernatant was harvested after 24 (WT, Δ3βG and Δ3βGΔcre) or 72 hours (Δ3βG). The WT Avicel® culture was grown for 5 days on 2% Avicel®, Δ3βG was grown in 1% sucrose for 24 hours followed by 48 hours in 1% Avicel® and Δ3βGΔcre was grown in 1% sucrose for 24 hours followed by 24 hours in 1% Avicel®.
Total Avicelase activity was conducted in 250 mL media bottles incubated at 50° C. on a orbital shaker at 200 rpm. Each bottle contained 1% cellulose (Avicel®) and 50 mM (pH 5.0) sodium acetate in a working volume of 50 mL. Tetracycline (10 μg/mL) was added to prevent microbial contamination. Bioreactor culture broth samples were buffer exchanged using a 10 kDa MWCO centrifugal filter to remove any soluble sugars prior to initiating hydrolysis experiments. After pre-incubating the hydrolysis mixture to 50° C., enzyme was added (1 mL filtered culture broth). Samples were taken every 4 hours for the first 12 hours and then every 12 hours thereafter for a total of 48 hours. Hydrolysis experiments were performed in triplicate.
Sucrose, fructose, glucose and cellobiose were measured on a DIONEX ICS-3000 HPLC (Dionex Corp., Sunnyvale, Calif.) using a CarboPac PA20 Analytical Column (3×150 mm) and a CarboPac PA20 guard column (3×30 mm) at 30° C. Following injection of 25 μl of diluted samples, elution was performed with 100 mM KOH (isocratic) at 0.4 ml/min. Sugars were detected using PAD, Four-Potential Carbohydrate Waveform and Peaks were analyzed using the Chromeleon software package.

| induction of lignocellulolytic genes [1] | SMILES | induction of cellulase gene expression ([1]; WT) | induction of cellulase gene expression ([1]; Δ3βG mutant) | also measured |
| --- | --- | --- | --- | --- |
| – | O=C[C@H](O)[C@@H](O)[C@@H](O)[C@H](O)CO [D-(+)-galactose] | did not significantly induce | did not significantly induce | – |
| not induced | OC[C@H]1O[C@@H](O[C@H]2[C@H](O)[C@@H](O)[C@H](O[C@H]3[C@H](O)[C@@H](O)[C@H](O[C@H]4[C@H](O)[C@@H](O)C(O)O[C@@H]4CO)O[C@@H]3CO)O[C@@H]2CO)[C@H](O)[C@@H](O)[C@@H]1O (some centres unmarked) [cellotetraose] | – | – | – |
| – | OC[C@H]1O[C@@H](O[C@H]2C(O)O[C@H](CO)[C@@H](O)[C@@H]2O)[C@H](O)[C@@H](O)[C@@H]1O (some centres unmarked) [sophorose] | did not significantly induce | did not significantly induce | – |
| – | OC[C@H]1O[C@@H](O[C@H]2[C@H](O)[C@@H](O)C(O)O[C@@H]2CO)[C@H](O)[C@@H](O)[C@H]1O (some centres unmarked) [lactose] | did not significantly induce | did not significantly induce | – |
| not induced | OC[C@H]1O[C@@H](O[C@H]2[C@H](O)[C@@H](O)[C@H](O[C@H]3[C@H](O)[C@@H](O)C(O)O[C@@H]3CO)O[C@@H]2CO)[C@H](O)[C@@H](O)[C@@H]1O (some centres unmarked) [cellotriose] | – | – | – |

| SMILES | induction of lignocellulolytic genes [1] | induction of cellulase gene expression ([1]; WT) | induction of cellulase gene expression ([1]; Δ3βG mutant) | also measured |
| --- | --- | --- | --- | --- |
| OC[C@H]1O[C@@](CO)(O[C@H]2O[C@H](CO)[C@@H](O)[C@H](O)[C@H]2O)[C@@H](O)[C@@H]1O [sucrose] | not induced | – | – | secreted protein concentration ([2]; WT): 270 µg/mL; secreted protein ([2]; triple β-glucosidase deletion, after 2 days): 180 µg/mL; secreted protein concentration ([2]; Δcre-1): 481 µg/mL; MuLac activity ([3]; triple β-glucosidase deletion, two days): no activity towards MuLac; activity of secreted proteins towards MuLac ([3]; Δcre-1, on sucrose): do not exhibit any activity towards MuLac; hydrolysis of crystalline cellulose by culture supernatant ([4]; WT cultures grown on or induced with the substance): unable to produce glucose or cellobiose from crystalline cellulose; hydrolysis of crystalline cellulose by culture supernatant ([4]; Δ3βG cultures grown on or induced with the substance): unable to produce glucose or cellobiose from crystalline cellulose; hydrolysis of crystalline cellulose by culture supernatant ([4]; Δ3βGΔcre cultures grown on or induced with the substance): unable to produce glucose or cellobiose from crystalline cellulose |

Reference: US9822373B2, “Mutant cells for protein secretion and lignocellulose degradation” (The Regents of the University of California, priority 2011, dated 2017)
